The subject of one data set is caspases-3, -9 and PARP. The experiment in a line: Western blot, cleavage of caspases-3, -9 and PARP in EU-1 cells. The format is cell-based. To be noted: 69L52 1 μM vs MX69 5 μM. As to the method: (§1) Cells were lysed in a buffer composed of 50 mM Tris, pH 7.6, 150 mM NaCl, 1% Nonidet P-40, 10 mM sodium phosphate, 10 mM NaF, 1 mM sodium orthovanadate, 2 mM phenylmethylsulfonyl fluoride (PMSF), […], 10 μg/mL leupeptin and 10 μg/mL pepstatin. After centrifugation, the clarified cell lysate was separated from the pellet of cell debris, and then incubated with 15 μL Protein G/Protein A-agarose and 1 μg of antibodies, overnight at 4° C. For the Western blot, the resulting cell lysates or immunoprecipitates were resolved by SDS-PAGE. They were then transferred to a nitrocellulose filter and probed with the specific antibodies as listed in the supplemental Materials section. Finally, proteins were visualized with a chemiluminescent detection system.
(A western blot detects proteins with antibodies after separation by electrophoresis.)

The next data set deals with NB-1643. Nature of the data set: WST cytotoxicity assay, NB-1643. Type of data set: cell-based. To be noted: Homo sapiens; NB-1643 line; read-out: Cancer cell cytotoxicity IC50. As to the method: (§2) This study used two ALL cell lines (EU-1 and EU-3) and three NB cell lines (NB-1643, SHEP1 and LA1-55N). All 5 cancer cell lines were established from pediatric ALL or NB patients and were well-characterized for their expression of MDM2 and p53-status, as reported previously. All cell lines were grown in standard culture medium (RPMI 1640 containing 10% FBS, 2 mmol/L L-glutamine, 50 U penicillin and 50 μg/mL streptomycin) at 37° C. in a humidified atmosphere containing 5% CO2.
(§3) The cytotoxic effect of MX 69 and MX69 analogs on cancer cells was determined using the water-soluble tetrazolium salt (WST) assay. Briefly, cells cultured in 96-well microtiter plates were treated with different concentrations of AQ-101 for a 20-h period. WST (25 μg/well) was then added and incubation continued for an additional 4 h, after which optical density (OD) was read with a microplate reader (test wavelength of 450 nm; reference wavelength of 620 nm).

The subject of another data set is 697 cell line. Nature of the data set: WST cytotoxicity assay, 697 cell line. The format is cell-based. To be noted: read-out: Cancer cell cytotoxicity IC50. As to the method: as §3
Another data set deals with p21 and PUMA. The experiment in a line: Western blot for p53 targets p21 and PUMA in EU-1 cells. The format is cell-based. The method, then:
as §1

A further data set has as its system XIAP mRNA. The experiment in a line: Polysome analysis of XIAP mRNA in EU-1 cells. Type of data set: cell-based. As to conditions: 1 μM for 4 h. The method, then: Cells were incubated with 100 μg/mL cycloheximide (CHX) for 15 min to arrest polyribosome migration, and then lysed (in order to isolate cytoplasmic extracts) in a buffer containing 20 mM Tris-HCl at pH 8.0, 100 mM NaCl, 5 mM MgCl2, 0.5% Triton X-100, 500 U/mL RNAsin, and a cocktail of protease inhibitors. Fractionation was performed on a 15-45% (w/v) sucrose gradient at 39,000 rpm for 1 h (SW41Ti rotor). Fractions were collected by upward replacement in a fractionator (Isco, Lincoln, NE). The RNA from each fraction was subjected to quantitative PCR.

The subject of another data set is 93-10 line. Nature of the data set: WST cytotoxicity assay, 93-10 line. As to conditions: 93-10 line no MDM2 and p53; read-out: Cancer cell cytotoxicity IC50. The format is cell-based. The method, then:
as §3

A further data set concerns 855 luc. Nature of the data set: WST cytotoxicity assay, 855 luc. To be noted: read-out: Cancer cell cytotoxicity IC50. Type of data set: cell-based. As to the method:
as §3

In data set [1] the test system is NB cell lines NB-1643, SHEP1 and LA1-55N. Nature of the data set: WST cytotoxicity assay, NB cell lines. Type of data set: cell-based. To be noted: Homo sapiens, NB-1643, SHEP1, LA1-55N, 48 h, read-out: IC50, cytotoxicity against NB cell lines. The method, then:
as §2
(§4) The cytotoxic effect of MX 69 and MX69 analogs on cancer cells was determined using the water-soluble tetrazolium salt (WST) assay. […] WST (25 μg/well) was then added and incubation continued for an additional 4 h, after which optical density (OD) was read with a microplate reader (test wavelength of 450 nm; reference wavelength of 620 nm).

The test system of data set [2] is ALL cell lines EU-1 and EU-3. Nature of the data set: WST cytotoxicity assay, ALL cell lines. Type of data set: cell-based. As to conditions: Homo sapiens, 48 h, read-out: IC50, cytotoxicity against ALL cell lines. As to the method:
as §2, §4

The target in another data set is MDM2 RING protein (Homo sapiens, UniProt Q00987). Nature of the data set: Compound-protein binding (ITC) to MDM2 RING protein. As to conditions: MDM2 RING domain. The method, then: Isothermal titration calorimetry (ITC) assay was performed using the auto-iTC200 instrument (MicroCal, GE). MDM2 protein was loaded into a 96 DeepWell PP plate, and then compound was titrated stepwise into the protein sample cell using a syringe, for a total of 16 injections (except for the first injection, which was 0.4 μl). The equilibrium time between two adjacent injections was 210 s. The binding stoichiometry (n), binding constant (Kd), and thermodynamic parameters (ΔH and ΔS) were determined by fitting the titration curve to a one-site binding mode, using the Origin software provided by the manufacturer.
Sequence of MDM2 RING protein (Q00987 438-479 limits assumed): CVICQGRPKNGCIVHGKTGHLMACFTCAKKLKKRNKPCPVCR

Another data set concerns XIAP. The experiment in a line: XIAP inhibition / expression (Western blot). The format is cell-based. As to conditions: EU-1 cells; dose-dependent. The method, then: as §1
The next data set deals with 855 line. Nature of the data set: WST cytotoxicity assay, 855 line. The format is cell-based. To be noted: read-out: Cancer cell cytotoxicity IC50. The method, then: as §3
The test system of a further data set is LA1-55N. Nature of the data set: WST cytotoxicity assay, LA1-55N. As to conditions: line does not express normal p53. Type of data set: cell-based, human. As to the method:
as §2, §3

Data set [3] deals with T1, MDM2 (Homo sapiens, UniProt Q00987).
T1 construct: ubiquitination of endogenous MDM2 in EU-1 cells; endogenous in cells; host or cells: EU-1 (ALL) cells
T1 sequence (Q00987 whole entry): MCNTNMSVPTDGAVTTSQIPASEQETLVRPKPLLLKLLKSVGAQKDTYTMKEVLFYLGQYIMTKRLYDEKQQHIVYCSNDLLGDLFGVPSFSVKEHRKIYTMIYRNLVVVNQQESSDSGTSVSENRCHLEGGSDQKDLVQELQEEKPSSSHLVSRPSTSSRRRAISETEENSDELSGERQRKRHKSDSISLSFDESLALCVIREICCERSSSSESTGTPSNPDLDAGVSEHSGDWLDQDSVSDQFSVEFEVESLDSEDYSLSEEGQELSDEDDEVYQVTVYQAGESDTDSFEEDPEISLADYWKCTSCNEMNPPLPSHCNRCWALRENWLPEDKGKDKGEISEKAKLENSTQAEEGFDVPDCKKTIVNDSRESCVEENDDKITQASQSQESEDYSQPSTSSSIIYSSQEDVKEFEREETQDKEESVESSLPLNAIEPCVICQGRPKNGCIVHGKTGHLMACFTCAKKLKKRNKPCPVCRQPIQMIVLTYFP
Nature of the data set: MDM2 reduction / expression (Western blot). Type of data set: cell-based. An outline of the steps:
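EU-1 cell lysates (NP-40 buffer with protease/phosphatase inhibitors) resolved by SDS-PAGE directly or after overnight 4° C immunoprecipitation with Protein G/A-agarose. Blots probed with specific antibodies; chemiluminescent detection.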

Another data set deals with 91-06 line. Nature of the data set: WST cytotoxicity assay, 91-06 line. Type of data set: cell-based. To be noted: no MDM2 and p53, read-out: Cancer cell cytotoxicity IC50. The method, then: as §3
The next data set concerns p53. The experiment in a line: p53 induction / expression (Western blot). Type of data set: cell-based. As to conditions: for p53 induction: words or +/− grades, key not given. The method, then:
as §1

In the next data set the test system is NB cell lines. Nature of the data set: Colony formation assay, NB cell lines. Type of data set: cell-based, human. The method, then: A clonogenic assay was used to determine the effect of MX69 analogs on in vitro growth of NB and normal human hematopoietic cells, respectively. For NB1 colony formation assay, cells were harvested with treatment by trypsinization, producing a single-cell suspension, and then 200 cells were seeded into a 6-well plate and cultured for approximately 2 weeks. Colonies were stained with a mixture of 6.0% glutaraldehyde and 0.5% crystal violet for 30 min. Then carefully removed the staining mixture, rinsed with tap water and counted the colonies.

Another data set relates to DAOY line. Nature of the data set: WST cytotoxicity assay, DAOY line. Type of data set: cell-based. To be noted: Homo sapiens; DAOY line with MDM2/no p53; read-out: Cancer cell cytotoxicity IC50. As to the method:
as §3

The target in data set [4] is T1, MDM2. The experiment in a line: IP-Western blot, ubiquitination of endogenous MDM2 in EU-1 cells. Type of data set: cell-based. As to conditions: 1 μM. As to the method: as §1
For another data set, the system named is EU-1. The experiment in a line: WST cytotoxicity assay, cancer cell EU-1. The format is cell-based, human. To be noted: EU-1. An outline of the steps:
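Pediatric ALL and NB lines grown in RPMI 1640 with 10% FBS at 37 °C, 5% CO2. Cells were exposed to a range of compound concentrations for 20 h, then WST (25 μg/well) was added for a further 4 h. OD read at 450 nm against a 620 nm reference.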

The next data set relates to MYCN. The experiment in a line: MYCN inhibition. Type of data set: cell-based. As to conditions: MDM2 reduction.

Like-named read-outs stand apart in the source and are kept apart here.

As to `Cc1ccc(NS(=O)(=O)c2ccc3c(c2)C2OCC[C@H]2C(c2ccc(C(=O)C(C)C)cc2)N3)cc1C` (stereo partly shown) [Compound 69L52, N-(3,4-dimethylphenyl)-4-(4-isobutyrylphenyl)-2,3,3a,4,5,9b-hexahydrofuran[3,2-c]quinolone-8-sulfonamide], the “Cleavage of caspases-3, -9 and PARP compared with MX69” value with caspases-3, -9 and PARP is listed as “stronger cleavage”. Also, the IC50 in the data set on NB-1643 was 700 nM; in the data set on 697 cell line, 450 nM; in the data set with 93-10 line, 5930 nM; in the data set with 855 luc, 500 nM; in [1], 500 to 1200 nM; in data set [2], 300 to 400 nM. Further, the IC50 in the data set with 855 line is 740 nM; in the data set on 91-06 line, 3620 nM; in the data set on DAOY line, 2170 nM; in the data set on EU-1 (no other cell line named in the cell, read-out: Cancer cell (EU-1) cytotoxicity IC50) it was 1100 to 1400 nM; in the data set on EU-1 (Homo sapiens, printed in the Mouse MTD column, control run of the cytotoxicity test, read-out: Value of the compound used as (positive) control alongside the row's compound), 460 nM. Moreover, the “p53 downstream targets p21 and PUMA” value in the data set with p21 and PUMA is listed as “activation”. Further, the “Polyribosome association of XIAP mRNA” value in the data set on XIAP mRNA is “downregulation in polyribosome association”. The “MDM2 binding affinity as compared with MX69” value at MDM2 RING protein is given as “Increased MDM2 Binding Affinity”. In addition, the XIAP expression entry in the data set with XIAP is “remarkable downregulation”. The “Cytotoxicity to LA1-55N compared with other cell lines” value in the data set with LA1-55N is “much less cytotoxicity”. In addition, the “Time after treatment at which MDM2 and XIAP downregulation occurred” value at MDM2 [3] (EU-1 cells) was 2 to 4 h. On MDM2 [3] (EU-1 cells, 1 μM for 8 h, then 10 μM MG132 4 h), the “MDM2 downregulation in presence of MG132” value was “blocked by MG132”. The MDM2 expression result on MDM2 [3] (EU-1 cells, dose-dependent) is listed as “remarkable downregulation”. The MDM2 reduction entry on MDM2 [3] (words or +/− grades, key not given) is reported as “inhibition”. Further, the p53 expression result in the data set with p53 (EU-1 cells, accompanying MDM2 downregulation) is on record as “increased expression”. The p53 induction entry in the data set on p53 was “induction”. Moreover, the “Colony number and size as compared with controls” value in the data set on NB cell lines (NB cell lines) is on record as “significant reduction”. Besides, in the data set with NB cell lines (all 3 NB cell lines, two weeks), the “Cell growth in colony formation assay” value was “potently inhibited cell growth”. Also, the “Ubiquitination of endogenous MDM2” value at MDM2 [4] is “induced ubiquitination of endogenous MDM2”.

As to `Cc1ccc(NS(=O)(=O)c2ccc3c(c2)C2NCC[C@H]2C(C2CCCCC2)N3)cc1C` (stereo partly shown) [Compound 69L61], the results for the IC50 in the data set with NB-1643, in the data set with 697 cell line and in the data set with 855 line were 1600 nM, 3600 nM and 2430 nM, respectively. The p53 induction entry in the data set with p53 is “No p53”. Also, the MYCN inhibition entry in the data set with MYCN is given as “inhibition”.

Source of the values: patent US20240059658A1 (Emory University, priority 2019, published 2024).
